This is an account of results in patent US20040023892A1, “Pharmaceutical composition based on a non-steroid anti-inflammatory agent” (priority 2002, published 2004).

Series [1] relates to inflammatory swelling of paw of mice after introduction of carragenin. Put plainly: Inflammatory swelling of paw of mice after introduction of carragenin. The format is in vivo. The settings on record: dose mg/kg; for Increase of Mass of Limb / Suppression of Swelling, % to Control: preparation alone, into stomach once a day 5 days, 3.5 hours after carragenin; for swelling of paw of mice after introduction of carragenin: the values are: increase of paw mass; for swelling of paw of mice after introduction of carragenine: Table 4, Control: NAIA alone. The method, then: Tests were performed on breedless white mice-males with mass 22-24 g. The investigated preparations were introduced to animals through a probe into stomach once a day during five days in form of suspension on 1% starch mucous or aqueous solution.
In one hour after the last introduction of preparations, mice were injected with 0.05 ml of 1% of solution of carragenin in isotonic solution of sodium chloride, under aneurism of right rear paw. After 3.5 hours, on a peak of inflammation, they were killed by dislocation of a neck area of spine. Swollen and healthy paws were compared, and a degree of suppression of swelling was determined in test groups when compared with a control group in accordance with the formula:
Increase of mass of paw in control-increase of mass of paw in test ______ 100 increase of mass of paw in control.
Tests were performed on breedless white mice-males with mass 22-26 g.

The subject of series [2] is ambulatory patients. The settings on record: human, in vivo.
Series [3] has as its system ambulatory patients. Put plainly: Clinical investigation of side effects of NAIA combinations with carbohydrates or sorbents.
The test system of a further series is breedless mice-male. Put plainly: Acute toxicity of ASA (LD50) with carbohydrate or sorbent. The settings on record: relative to LD50 of ASA alone. The series is classed as in vivo. As for the experimental part:
Tests were conducted on breedless mice-male with mass 22-26 g. Acute toxicity of ASA was evaluated in accordance with the value LD50 (dose from which 50% of animals perish) of composition containing ACA plus carbohydrate or sorbent with ratio 4:1 when compared with LD50 ASA. Preparations were introduced one time intostomach in form of aqueous suspension with doses 350-3000 mg/kg to groups of six mice. Observations were conducted during 14 days. As a substance which has absorbing properties there were used activated carbon, white clay (caolin), aluminum hydroxide, magnium tricilicate, hydroxylapatite, microcrystaalline cellulose (MCC). As carbohydrates there were used monosaccarides-glucose and fructose, disaccaride-saccarose and lactose, and polysaccaride-potato starch. Results of experiments were processed in accordance with the method of Lichfield-Wilkoxon (Belensky, M. L. “Elements of quantitative evaluation of pharmacological effect,” second edition, redone and added, L, Medgiz, 1963, 152 p).
LD50 composition were counted on ASA (tables 7, 8).

The mark [4] stands for this setting: 0.25 g with succinate of ammonium 0.1 g and activated carbon (0.35 g), two times a day 8 weeks.

Marks after values point to notes of the source that are not given here.

With `O=C(O)/C=C/C(=O)O` [FUM, fumaric], in series [1] (n = 10), the “Increase of Mass of Limb” value is on record as 59.3 ± 5.5 mg and the “Suppression of Swelling, % to Control” value is given as −1.3 % to Control.

In the case of Vitamin E [Vit E], in series [1] (n = 10), the “Increase of Mass of Limb” value amounted to 58.7 mg and the “Suppression of Swelling, % to Control” value is −2.3 % to Control.

For `O=C([O-])Cc1ccccc1Nc1c(Cl)cccc1Cl.[Na+]` [ortofen], in the series with ambulatory patients [2], the “dispeptic phenomenon, headaches, dizziness” value is given as “less exhibited” and the taking of medication entry was “taking medication better”.

On to `CN1C(C(=O)Nc2ccccn2)=C(O)c2ccccc2S1(=O)=O` [PK, piroxikam], for which the swelling of paw of mice after introduction of carragenin in series [1] (Table 2, column Control: NAIA alone, N = 10) stood at 28.8 mg; in series [1] (Table 3, column Control: NAIA alone, n = 10) it was 28.8 mg; in series [1] (Table 5, column Control: NAIA alone, N = 10) it was 28.8 mg. The “swelling of paw of mice after introduction of carragenine” value (from here on “swelling of paw … of carragenine”) in series [1] (N = 10) is reported as 28.8*. Further, the “Increase of Mass of Limb” value in series [1] (n = 10) came out at 28.8 ± 4.9 mg. The “Suppression of Swelling, % to Control” value in series [1] (n = 10) was −52.0 % to Control.

For the compound `O=c1c(O)c(-c2ccc(O)c(O)c2)oc2cc(O)cc(O)c12` [KV, kvertsetin], in series [1] (n = 10), the “Increase of Mass of Limb” value came to 58.7 ± 3.6 mg and the “Suppression of Swelling, % to Control” value is on record as −2.3 % to Control.

`CC(=O)Oc1ccccc1C(=O)O` [ASA, acetyl salicylic acid]: in the series on ambulatory patients [3] (setting [4]), the “better taking of mixture ASA and ammonium succinate” value is “Four from five”; the dyspeptic phenomena result is “all 5 exhibited dyspeptic phenomena to a lesser degree”. Also, the “swelling of paw … of carragenine” value in series [1] (N = 10) is reported as 41.3*. In the series with breedless mice-male, the “Increase of Toxicity In” value is 0.

In the case of Vitamin B6 [Vit B6], in series [1] (n = 10), the “Increase of Mass of Limb” value was determined as 60.5 mg and the “Suppression of Swelling, % to Control” value is “+0.7 % to Control”.

For `N[C@@H](CS)C(=O)O` [TIS, tsistein], in series [1] (n = 10), the “Increase of Mass of Limb” value turned out to be 61.5 ± 6.4 mg and the “Suppression of Swelling, % to Control” value is “+2.3 % to Control”.

On to `O=C(O)c1cccnc1Nc1cccc(C(F)(F)F)c1` [NA, niflumic acid], for which the “swelling of paw … of carragenine” value in series [1] (N = 10) is reported as 31.1*.

Regarding `O=C(O)CCCCC1CCSS1` (stereo not drawn) [Lipoic acid LA, lipoic acid], in series [1] (n = 10), the “Increase of Mass of Limb” value is recorded as 62.3 mg and the “Suppression of Swelling, % to Control” value is listed as “+3.7 % to Control”.

As for `COc1ccc2c(c1)c(CC(=O)O)c(C)n2C(=O)c1ccc(Cl)cc1` [IM, indometatsin], in the series on ambulatory patients [3] (0.05 g with 0.25 g karsil, group which did not receive sorbent), the “patients needing antyhistamine substances for reduction of allergenic phenomena” value was “one more patient needed antyhistamine substances”. In addition, the “patients forced to stop taking preparation because of strong headaches in epigastric, vomiting” value in the series with ambulatory patients [3] (0.05 g with 0.25 g karsil, group which did not receive sorbent, after the third week) came to 1 patient. For the same compound, the “side effects of indometnacyne, in particular dispeptic phenomena, dizziness, headaches” value in the series on ambulatory patients [3] (0.05 g with 0.25 g karsil, together with microcrystalline cellulose 1:2, 5 weeks, versus without sorbent) is given as “to a lesser degree”. In addition, in series [1] (N = 10), the “swelling of paw … of carragenine” value is reported as 19.0*.

Take `CCCCC1C(=O)N(c2ccccc2)N(c2ccccc2)C1=O` [BN, butadion]: the “swelling of paw … of carragenine” value in series [1] (N = 10) is on record as 32.4*.

Turning to `NCC(=O)O` [GLy, glycin], in series [1] (n = 10), the “Increase of Mass of Limb” value is listed as 63.0 ± 5.5 mg and the “Suppression of Swelling, % to Control” value was “+4.8 % to Control”.

For the compound `N.N.O=C(O)CCC(=O)O` [S-NH4, succinate of ammonium], in series [1] (n = 10), the “Increase of Mass of Limb” value is 63.5 ± 6.1 mg and the “Suppression of Swelling, % to Control” value is given as “+5.7 % to Control”.

Regarding `COc1ccc2cc([C@H](C)C(=O)O)ccc2c1` [NP, naproxen], the “swelling of paw … of carragenine” value in series [1] (N = 10) was 28.9*.

Regarding `O=C(O)Cc1ccccc1Nc1c(Cl)cccc1Cl` [VL, voltaren], the “swelling of paw … of carragenine” value in series [1] (N = 10) is recorded as 24.3*.
